These results are taken from publication PMC5787466, “Accelerated bottom-up drug design platform enables the discovery of novel stearoyl-CoA desaturase 1 inhibitors for cancer therapy” (Oncotarget, 2017).

Structures are written as SMILES.

The test system of experiment [1] is A498. The experiment is described as follows: Proliferation dose-response IC50, A498. The settings on record: Homo sapiens, proliferative IC50, linear regression modeling of dose-response. It is filed as cell-based. As for the experimental part:
(§1) Error bars indicate standard deviation for n=2 replicates. […] To evaluate inhibition of SCD1 by these molecules, we used LC/MS to quantify changes in SCD1-catalyzed conversion of stearoyl-CoA to oleoyl-CoA in response to drug treatments in vitro using SCD1 protein extracted from murine liver (Figure 3c, Supplementary Figure 2g). […] Synthesis routes and spectral data including NMR and MS are also provided (Supplementary Figures 3-6).
(§2) Cells were seeded at 5,000 cells/well in clear-bottom 96-well plates in triplicate. Drug treatment was applied at 1:1000 in reduced serum conditions (3%). […] Alternatively, cells were plated 2x10^5/well in 12-well plates (Genesee Scientific) in triplicate prior to drug treatment. After 120-hour treatment, cell number was established using a Coulter Particle Counter (Beckman). Oleic acid-albumin (Sigma Aldrich) was added to media at 5µM, and was applied adjuvant to drug treatment. Drug stocks were prepared in DMSO (Sigma) at 1000x. IC50 dosing per cell line was calculated using CalcuSyn analytical software.

The subject of experiment [2] is ACHN. The experiment is described as follows: Proliferation dose-response IC50, ACHN. In kind it is cell-based. The settings on record: Homo sapiens, proliferative IC50, linear regression modeling of dose-response. The method, then:
as §1, §2

The test system of experiment [3] is Caki1. The experiment is described as follows: Proliferation dose-response IC50, Caki1. In kind it is cell-based. The settings on record: Homo sapiens, CAKI-1; proliferative IC50, linear regression modeling of dose-response. As for the experimental part:
as §1, §2

Experiment [4] deals with Caki2. Briefly: Proliferation dose-response IC50, Caki2. It is filed as cell-based. The settings on record: Homo sapiens, CAKI-2; proliferative IC50, linear regression modeling of dose-response. As for the experimental part: as §1, §2
Experiment [5] relates to RCC cell lines. The experiment is described as follows: Proliferation assay with exogenous oleic acid (OA) rescue. In kind it is cell-based, Human. The note with it: cells treated with proliferative IC50 dose, 72 hour, OA 5µg/mL. The source says: Induction of the unfolded protein response (UPR) is a known biological response to SCD1 inhibition in tumor cells. […] The addition of exogenous OA was sufficient to reverse the activation of ATF6 (Figure 4b). Moreover, exogenous OA inhibited SSI-(1-4) mediated upregulation of the UPR markers BiP (heat shock 70 kDa protein) and CHOP (damage inducible transcript 3) protein levels in both A498 and ACHN cells (Figure 4c). Collectively these findings confirm that SSI-(1-4) reliably recapitulates the biological responses observed in tumor cells treated with known SCD1 inhibitors. […] Thus, SSI-4 is not predicted to have any major off-target effects through kinase inhibition (Supplementary Figures 7 and 8).
Results are presented as relative bioluminescence (BLI). […] Beta-actin is used as a loading control. (d) Proliferative response in patient-derived normal cells, and established tumor cell lines to treatment with MF-438 or SSI-(1-4).
Cells were seeded at 5,000 cells/well in clear-bottom 96-well plates in triplicate. Drug treatment was applied at 1:1000 in reduced serum conditions (3%). After 72 hours, cells were washed with PBS, and stored at -80 °C prior to analysis using CyQuant® Proliferation Analysis Kit (Invitrogen) er manufacturers’ protocol for relative fluorescence units. […] IC50 dosing per cell line was calculated using CalcuSyn analytical software.

Experiment [6] relates to SCD1. The settings on record: known inhibitor, no reference given; cited from earlier work.
For experiment [7], the target named is T1, SCD1 protein extracted from murine liver (Mus musculus, UniProt P13516).
T1 construct: Microsomes were isolated from murine liver using Microsome Isolation Kit (BioVision); from tissue; host or cells: murine liver microsomes
T1 sequence (P13516 1-355): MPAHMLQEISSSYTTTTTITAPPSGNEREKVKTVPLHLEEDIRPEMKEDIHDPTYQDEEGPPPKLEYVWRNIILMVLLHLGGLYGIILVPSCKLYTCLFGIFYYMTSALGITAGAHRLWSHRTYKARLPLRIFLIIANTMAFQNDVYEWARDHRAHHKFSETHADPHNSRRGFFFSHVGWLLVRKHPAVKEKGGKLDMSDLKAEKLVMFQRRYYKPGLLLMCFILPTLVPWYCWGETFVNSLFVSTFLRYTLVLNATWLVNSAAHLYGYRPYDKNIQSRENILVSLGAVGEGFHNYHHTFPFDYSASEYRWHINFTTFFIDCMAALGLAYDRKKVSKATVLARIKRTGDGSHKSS
Briefly: In vitro SCD1 enzymatic inhibition by LC/MS (stearoyl-CoA to oleoyl-CoA, liver microsomes). In kind it is biochemical. The settings on record: n=2. An excerpt:
After synthesis feasibility and cost analysis, we synthesized 38 of the selected compounds. […] To evaluate inhibition of SCD1 by these molecules, we used LC/MS to quantify changes in SCD1-catalyzed conversion of stearoyl-CoA to oleoyl-CoA in response to drug treatments in vitro using SCD1 protein extracted from murine liver (Figure 3c, Supplementary Figure 2g). […] Synthesis routes and spectral data including NMR and MS are also provided (Supplementary Figures 3-6).
Microsomes were isolated from murine liver using Microsome Isolation Kit (BioVision) per the manufacturer protocol. […] To quantify biotransformation of ^13C18-stearoyl CoA to ^13C18-oleoyl CoA for drug treatments relative to vehicle controls, supernatants were evaluated using the LC/MS^2 acyl CoA quantitation method of Magnes et al. and adapting selected reaction monitoring (SRM) for isotope-labeled acyl CoAs. […] SRM signal areas for isotope-labeled acyl CoAs were measured relative to the heptadecanoyl CoA I.S. using XCalibur software (Thermo), and percent enzyme inhibition determined by comparing ^13C18-oleoyl CoA quantities between treatment and DMSO control assays. […]
In general terms: Microsomes from liver hold many membrane-bound enzymes, among them those of drug oxidation.

In general, IC50 refers to the concentration at which inhibition is half-maximal. As to `CNC(=O)COc1cncc(C(=O)N2CC[C@H](Oc3ccccc3Cl)C2)c1` [ChemBL375265, reference compound], the IC50 in experiment [1] was 5 µM; in experiment [2], 0.08 µM; in experiment [3], 1 µM; in experiment [4], 0.5 µM; in experiment [6], 400 nM. In addition, the “rescue of proliferation by exogenous oleic acid (OA)” value in experiment [5] was “fully restored proliferation”.
For `Cc1nnc(-c2ccc(N3CCC(Oc4ccccc4C(F)(F)F)CC3)nn2)s1` [MF-438, 2-methyl-5-(6-(4-(2-(trifluoromethyl)phenoxy)piperidin-1-yl)pyridazin-3-yl)-1,3,4-thiadiazole, reference compound], the IC50 came to 0.008 µM in experiment [1]; 0.006 µM in experiment [2]; 0.007 µM in experiment [3]; 0.012 µM in experiment [4]; 1.1 nM in experiment [7]. The “rescue of proliferation by exogenous oleic acid (OA)” value in experiment [5] is reported as “fully restored proliferation”.
